Structures can show the parent of a compound that is named as a salt.
Molecular target: T1, σ1-receptor (Cavia porcellus, UniProt Q60492)
T1 construct: guinea pig brains were homogenized; from tissue; host or cells: guinea pig brain membranes
Test: Sigma-1 receptor binding, [3H](+)-pentazocine, brain membranes
Parameters: species or system guinea pig
Settings: not given
Procedure: Brain membrane preparation and binding assays for the σ1-receptor were performed as described (DeHaven-Hudkins et al., 1992) with some modifications. In brief, guinea pig brains were homogenized in 10 vols. (w/v) of Tris-HCl 50 mM 0.32 M sucrose, pH 7.4, with a Kinematica Polytron PT 3000 at 15000 r.p.m. for 30 s. The homogenate was centrifuged at 1000 g for […] at 4° C. and the supernatants collected and centrifuged again at 48000 g for 15 min at 4° C. The pellet was resuspended in 10 volumes of Tris-HCl buffer (50 mM, pH 7.4), incubated at 37° C. for 30 min, and centrifuged at 48000 g for 20 min at 4° C. Following this, the pellet was resuspended in fresh Tris-HCl buffer (50 mM, pH 7.4) and stored on ice until use.
Each assay tube contained 10 μL of [^3H](+)-pentazocine (final concentration of 0.5 nM), 900 μL of the tissue suspension to a final assay volume of 1 mL and a final tissue concentration of approximately 30 mg tissue net weight/mL. […] All tubes were incubated at 37° C. for 150 min before termination of the reaction by rapid filtration over Schleicher & Schuell GF 3362 glass fibre filters [previously soaked in a solution of 0.5% polyethylenimine for at least 1 h]. Filters were then washed with four times with 4 mL of cold Tris-HCl buffer (50 mM, pH 7.4). Following addition of scintillation cocktail, the samples were allowed to equilibrate overnight. The amount of bound radioactivity was determined by liquid scintillation spectrometry using a Wallac Winspectral 1414 liquid scintillation counter. Protein concentrations were determined by the method of Lowry et al. (1951).

T1 sequence (Q60492 whole entry): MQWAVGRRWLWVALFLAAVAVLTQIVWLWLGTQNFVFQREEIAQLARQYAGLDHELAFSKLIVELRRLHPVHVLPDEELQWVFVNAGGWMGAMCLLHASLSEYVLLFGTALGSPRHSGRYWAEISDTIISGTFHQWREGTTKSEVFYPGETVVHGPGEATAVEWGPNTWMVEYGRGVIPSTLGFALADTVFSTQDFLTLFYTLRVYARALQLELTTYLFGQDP

Ki	Compound
4.1 nM	CCN(CC)CCCCOc1cc(C)n(-c2ccc(Cl)c(Cl)c2)n1 [Example 27, 4-[1-(3,4-Dichlorophenyl)-5-methyl-1H-pyrazol-3-yloxy]-N,N-diethylbutan-1-amine]
8.6 nM	CC(C)c1cc(OCCN2CCCCC2)nn1-c1ccc(Cl)c(Cl)c1 [Example 35, 1-{2-[1-(3,4-Dichlorophenyl)-5-isopropyl-4H-pyrazol-3-yloxy]ethyl}piperidine]

Compound	Ki
Cc1cc(OCCCCN2CCCC2)nn1-c1ccc(Cl)c(Cl)c1 [Example 23, 1-(3,4-Dichlorophenyl)-5-methyl-3-[4-(pyrrolidin-1-yl)butoxy]-1H-pyrazole]	4.4 nM

Same assay, conditions: 10^−7 M

Compound	inhibition at 0.1 µM	% Binding σ1
CCN(CC)CCOc1cc(C)n(-c2ccc(Cl)c(Cl)c2)n1 [Example 2, 2-[1-(3,4-Dichlorophenyl)-5-methyl-1H-pyrazol-3-yloxy]-N,N-diethylethanamine hydrochloride]	95.1%	–
Cc1cc(OCCN2CCCC2)nn1-c1ccc(Cl)c(Cl)c1.Cl [Example 3, 1-(3,4-Dichlorophenyl)-5-methyl-3-[2-(pyrrolidin-1-yl)ethoxy]-1H-pyrazole hydrochloride]	102%	–
Cc1cc(OCCCN2CCCC2)nn1-c1ccc(Cl)c(Cl)c1.Cl [Example 4, 1-(3,4-Dichlorophenyl)-5-methyl-3-[3-(pyrrolidin-1-yl)propoxy]-1H-pyrazole hydrochloride]	98%	–
Cc1cc(OCCN2CCCCC2)nn1-c1ccc(Cl)c(Cl)c1 [Example 5, 1-{2-[1-(3,4-dichlorophenyl)-5-methyl-1H-pyrazol-3-yloxy]ethyl}piperidine]	108%	–
Cc1cc(OCCN2CCC(n3cnc4cccnc43)CC2)nn1-c1ccc(Cl)c(Cl)c1 [Example 7, 3-{1-[2-(1-(3,4-Dichlorophenyl)-5-methyl-1H-pyrazol-3-yloxy)ethyl]piperidin-4-yl}-3H-imidazo[4,5-b]pyridine]	94.4%	–
Cc1cc(OCCN2CCN(C)CC2)nn1-c1ccc(Cl)c(Cl)c1 [Example 8, 1-{2-[1-(3,4-Dichlorophenyl)-5-methyl-1H-pyrazol-3-yloxy]ethyl}-4-methylpiperazine]	94.5%	–
CCOC(=O)N1CCN(CCOc2cc(C)n(-c3ccc(Cl)c(Cl)c3)n2)CC1 [Example 9, Ethyl 4-{2-[1-(3,4-dichlorophenyl)-5-methyl-1H-pyrazol-3-yloxy]ethyl}piperazine carboxylate]	99.5%	–
COc1ccc(-n2nc(OCCCN3CCCC3)cc2C)cc1 [Example 13, 1-(4-Methoxyphenyl)-5-methyl-3-[3-(pyrrolidin-1-yl)propoxy]-1H-pyrazole]	50.9%	–
Cc1cc(OCCCCN2CCCC2)nn1-c1ccc(Cl)c(Cl)c1 [Example 23, 1-(3,4-Dichlorophenyl)-5-methyl-3-[4-(pyrrolidin-1-yl)butoxy]-1H-pyrazole]	96.4%	–

The remaining lines, values ahead:

inhibition at 0.1 µM	% Binding σ1	Compound
48.9%	–	COc1ccc(-n2nc(OCCN3CCCCC3)cc2C)cc1 [Example 14, 1-[2-(1-(4-Methoxyphenyl)-5-methyl-1H-pyrazol-3-yloxy)ethyl]piperidine]
46.5%	–	Cl.Clc1ccc(-n2nc(OCCN3CCOCC3)cc2-c2ccccc2)cc1Cl [Example 16, 4-{2-[1-(3,4-Dichlorophenyl)-5-phenyl-1H-pyrazol-3-yloxy]ethyl}morpholine hydrochloride]
58.6%	–	Clc1ccc(-n2nc(OCCCN3CCCC3)cc2-c2ccccc2)cc1Cl [Example 18, 1-(3,4-Dichlorophenyl)-5-phenyl-3-[3-(pyrrolidin-1-yl)propoxy]-1H-pyrazole]
80.1%	–	Clc1ccc(-n2nc(OCCN3CCCCC3)cc2-c2ccccc2)cc1Cl [Example 19, 1-{2-[1-(3,4-Dichlorophenyl)-5-phenyl-1H-pyrazol-3-yloxy]ethyl}piperidine]
99.2%	–	CCN(CC)CCCCOc1cc(C)n(-c2ccc(Cl)c(Cl)c2)n1 [Example 27, 4-[1-(3,4-Dichlorophenyl)-5-methyl-1H-pyrazol-3-yloxy]-N,N-diethylbutan-1-amine]
83%	–	Cc1cc(OCCCCN2CCc3ccccc3C2)nn1-c1ccc(Cl)c(Cl)c1 [Example 30, 2-{4-[1-(3,4-dichlorophenyl)-5-methyl-1H-pyrazol-3-yloxy]butyl}-1,2,3,4-tetrahydroisoquinoline]
72.7%	–	CCN(CC)CCOc1cc(C(C)C)n(-c2ccc(Cl)c(Cl)c2)n1 [Example 32, 2-[1-(3,4-Dichlorophenyl)-5-isopropyl-1H-pyrazol-3-yloxy]-N,N-diethylethanamine]
102%	–	CC(C)c1cc(OCCN2CCCCC2)nn1-c1ccc(Cl)c(Cl)c1 [Example 35, 1-{2-[1-(3,4-Dichlorophenyl)-5-isopropyl-4H-pyrazol-3-yloxy]ethyl}piperidine]
108%	–	Clc1ccc(-n2ccc(OCCN3CCOCC3)n2)cc1Cl [Example 37, 4-{2-[1-(3,4-dichlorophenyl)-1H-pyrazol-3-yloxy]ethyl}morpholine]
108%	–	CCN(CC)CCOc1ccn(-c2ccc(Cl)c(Cl)c2)n1 [Example 38, 2-[1-(3,4-dichlorophenyl)-1H-pyrazol-3-yloxy]N,N-diethylethanamine]
110%	–	Clc1ccc(-n2ccc(OCCN3CCCC3)n2)cc1Cl [Example 39, 1-(3,4-dichlorophenyl)-3-[2-(pyrrolidin-1-yl)ethoxy]-1H-pyrazole]
110%	–	Clc1ccc(-n2ccc(OCCN3CCCCC3)n2)cc1Cl [Example 40, 1-{2-[1-(3,4-dichlorophenyl)-1H-pyrazol-3-yloxy]ethyl}piperidine]
–	93.6%	Cc1cc(OCCN2CCOCC2)nn1-c1ccc2ccccc2c1 [Example 61, 4-{2-[5-Methyl-1-(naphthalen-2-yl)-1H-pyrazol-3-yloxy]ethyl}morpholine]
69.2%	–	CCN(CC)CCOc1cc(C)n(-c2ccc3ccccc3c2)n1 [Example 62, N,N-Diethyl-2-[5-methyl-1-(naphthalen-2-yl)-1H-pyrazol-3-yloxy]ethanamine]

Tested on: not given
Test: not given
Settings: not given

Compound	melting point
COc1ccc(-n2nc(OCCN3CCOCC3)cc2C)cc1.Cl	169 to 173 °C
Cl.Clc1ccc(-n2nc(OCCn3ccnc3)cc2-c2ccccc2)cc1Cl	147 to 155 °C
CCN(CC)CCOc1nn(-c2ccc(Cl)c(Cl)c2)c(C)c1C.Cl	134 to 136 °C
Cc1c(OCCN2CCCC2)nn(-c2ccc(Cl)c(Cl)c2)c1C.Cl	146 to 148 °C
Cc1c(OCCCN2CCCC2)nn(-c2ccc(Cl)c(Cl)c2)c1C.Cl	155 to 157 °C
Cl.Clc1ccc(-n2ccc(OCCCCN3CCOCC3)n2)cc1Cl	165 to 169 °C
C[C@@H]1CN(CCCCOc2ccn(-c3ccc(Cl)c(Cl)c3)n2)C[C@H](C)O1.Cl	149 to 154 °C
Cl.Clc1ccc(-n2ccc(OCCCCN3CCCCC3)n2)cc1Cl	156 to 161 °C
Cl.Clc1ccc(-n2ccc(OCCCCN3CCCC3)n2)cc1Cl	181 to 186 °C
CCN(CC)CCCCOc1ccn(-c2ccc(Cl)c(Cl)c2)n1.O=C(O)C(=O)O	130 to 135 °C
COCCN(C)CCCCOc1ccn(-c2ccc(Cl)c(Cl)c2)n1.O=C(O)C(=O)O	97 to 100 °C
Clc1ccc(-n2ccc(OCCCCN3CCSCC3)n2)cc1Cl.O=C(O)C(=O)O	175 to 177 °C
CC(=O)c1c(OCCN2CCOCC2)nn(-c2ccc(Cl)c(Cl)c2)c1C.O=C(O)C(=O)O	188 to 192 °C
CC(=O)c1c(OCCN2CCCC2)nn(-c2ccc(Cl)c(Cl)c2)c1C.O=C(O)C(=O)O	159 to 162 °C
CC(=O)c1c(OCCN2CCCCC2)nn(-c2ccc(Cl)c(Cl)c2)c1C.O=C(O)C(=O)O	158 to 161 °C
CCN(CC)CCOc1nn(-c2ccc(Cl)c(Cl)c2)c(C)c1C(C)=O.O=C(O)C(=O)O	147 to 149 °C
Cc1cc(OCCN2CCCC2)nn1-c1ccc(Cl)c(Cl)c1.Cl [Example 3, 1-(3,4-Dichlorophenyl)-5-methyl-3-[2-(pyrrolidin-1-yl)ethoxy]-1H-pyrazole hydrochloride]	> 280 °C (dec.)
Cc1cc(OCCCN2CCCC2)nn1-c1ccc(Cl)c(Cl)c1.Cl [Example 4, 1-(3,4-Dichlorophenyl)-5-methyl-3-[3-(pyrrolidin-1-yl)propoxy]-1H-pyrazole hydrochloride]	149 to 155 °C
Cc1cc(OCCN2CCCCC2)nn1-c1ccc(Cl)c(Cl)c1 [Example 5, 1-{2-[1-(3,4-dichlorophenyl)-5-methyl-1H-pyrazol-3-yloxy]ethyl}piperidine]	119 to 122 °C
Cc1cc(OCCn2ccnc2)nn1-c1ccc(Cl)c(Cl)c1 [Example 6, 1-{2-[1-(3,4-dichlorophenyl)-5-methyl-1H-pyrazol-3-yloxy]ethyl}-1H-imidazole]	111 to 112 °C
Cc1cc(OCCN2CCC(n3cnc4cccnc43)CC2)nn1-c1ccc(Cl)c(Cl)c1 [Example 7, 3-{1-[2-(1-(3,4-Dichlorophenyl)-5-methyl-1H-pyrazol-3-yloxy)ethyl]piperidin-4-yl}-3H-imidazo[4,5-b]pyridine]	104 to 107 °C

Further lines, results first:

melting point	Compound
162 to 166 °C	Clc1ccc(-n2ccc(OCCN3CCOCC3)n2)cc1Cl (as salt: hydrochloride) [Example 37, 4-{2-[1-(3,4-dichlorophenyl)-1H-pyrazol-3-yloxy]ethyl}morpholine]
172 to 176 °C	Clc1ccc(-n2ccc(OCCN3CCCC3)n2)cc1Cl (as salt: hydrochloride) [Example 39, 1-(3,4-dichlorophenyl)-3-[2-(pyrrolidin-1-yl)ethoxy]-1H-pyrazole]
172 to 177 °C	Clc1ccc(-n2ccc(OCCN3CCCCC3)n2)cc1Cl (as salt: hydrochloride) [Example 40, 1-{2-[1-(3,4-dichlorophenyl)-1H-pyrazol-3-yloxy]ethyl}piperidine]
156 to 159 °C	Clc1ccc(-n2ccc(OCCCN3CCCC3)n2)cc1Cl (as salt: hydrochloride) [Example 41, 1-(3,4-dichlorophenyl)-3-[3-(pyrrolidin-1-yl)propoxy]-1H-pyrazole]
197 to 207 °C	Cl.Clc1ccc(-n2nc(OCCN3CCOCC3)cc2-c2ccccc2)cc1Cl [Example 16, 4-{2-[1-(3,4-Dichlorophenyl)-5-phenyl-1H-pyrazol-3-yloxy]ethyl}morpholine hydrochloride]
64 to 67 °C	Cc1c(OCCN2CCCCC2)nn(-c2ccc(Cl)c(Cl)c2)c1C [Example 48, 1-(2-(1-(3,4-Dichlorophenyl)-4,5-dimethyl-1H-pyrazol-3-yloxy)ethyl)piperidine]

Reference: patent US8470867B2, “Sigma receptor inhibitors” (Laboratorios Del Dr. Esteve, S.A., priority 2004, dated 2013)
